Key:
[1] = biological target: T1, Pancreatic triacylglycerol lipase (Sus scrofa, UniProt P00591); assay: Inhibition of porcine pancreatic lipase assessed as hydrolysis of p-NPB to p-nitrophenol by microplate reader
T1 sequence (P00591 whole entry): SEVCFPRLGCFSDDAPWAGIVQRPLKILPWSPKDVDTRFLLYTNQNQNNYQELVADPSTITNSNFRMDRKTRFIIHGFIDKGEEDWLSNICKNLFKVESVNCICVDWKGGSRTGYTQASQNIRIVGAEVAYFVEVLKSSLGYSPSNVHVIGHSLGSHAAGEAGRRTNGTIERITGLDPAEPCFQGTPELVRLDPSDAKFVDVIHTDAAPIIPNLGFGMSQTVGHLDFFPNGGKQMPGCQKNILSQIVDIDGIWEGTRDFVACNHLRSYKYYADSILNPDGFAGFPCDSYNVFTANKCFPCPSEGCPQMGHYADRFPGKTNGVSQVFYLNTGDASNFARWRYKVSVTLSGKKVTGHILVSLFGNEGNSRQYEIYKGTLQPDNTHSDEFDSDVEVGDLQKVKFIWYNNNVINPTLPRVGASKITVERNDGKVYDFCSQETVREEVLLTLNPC

[2] = biological target: T2, Pancreatic triacylglycerol lipase (Sus scrofa) (UniProt P00591); details: 10 uM
T2 sequence (whole entry): T1 sequence (P00591 whole entry)
Description: Inhibition of porcine pancreatic lipase assessed as hydrolysis of p-NPB to p-nitrophenol at 10 uM by microplate reader relative to control

IC50 [1]: 65 µM | inhibition [2]: 72.2%
SMILES: CC(C)=CCc1c(O)c(CC=C(C)C)c2occ(-c3ccc(O)cc3)c(=O)c2c1O
